# Assay results taken from PubChem BioAssay AID2060616 (Molecular Pharmacology Branch, DTP, NCI, 2025).
# Values joined by “and” are separate entries in the source; they are usually repeats but may differ in a detail not shown here. Identical values can stand only once.
# System: 377384-186-R-J1-PDC complex spheroid viability
# Test: Anticancer human tumor 377384-186-R-J1-PDC patient-derived pancreatic carcinoma cell line growth inhibition [CLK]
# Conditions: for viability, T/C: stronger effect = lower value
# Summary of the method: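 Multi-cell-type spheroids combined patient-derived tumor cells with HUVEC endothelial cells and human mesenchymal stem cells. Paired agents were dosed in half-log steps down from about clinical Cmax, or from 10 microM where Cmax was unknown.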
# [1] = curve of first compound, second compound 0.0316 µM
# [2] = curve of first compound, second compound 0.1 µM
# [3] = curve of first compound, second compound 0.316 µM
# [4] = curve of first compound, second compound 1 µM
# [5] = curve of first compound, second compound 3.16 µM
# [6] = curve of first compound, second compound 10 µM
# [7] = second compound 0.0316 µM, first compound 0.0316 µM
# [8] = second compound 0.0316 µM, first compound 0.1 µM
# [9] = second compound 0.0316 µM, first compound 0.316 µM
# [10] = second compound 0.0316 µM, first compound 1 µM
# [11] = second compound 0.0316 µM, first compound 3.16 µM
# [12] = second compound 0.0316 µM, first compound 10 µM
# [13] = second compound 0.1 µM, first compound 0.0316 µM
# [14] = second compound 0.1 µM, first compound 0.1 µM
# [15] = second compound 0.1 µM, first compound 0.316 µM
# [16] = second compound 0.1 µM, first compound 1 µM
# [17] = second compound 0.1 µM, first compound 3.16 µM
# [18] = second compound 0.1 µM, first compound 10 µM
# [19] = second compound 0.316 µM, first compound 0.0316 µM
# [20] = second compound 0.316 µM, first compound 0.1 µM
# [21] = second compound 0.316 µM, first compound 0.316 µM
# [22] = second compound 0.316 µM, first compound 1 µM
# [23] = second compound 0.316 µM, first compound 3.16 µM
# [24] = second compound 0.316 µM, first compound 10 µM
# [25] = second compound 1 µM, first compound 0.0316 µM
# [26] = second compound 1 µM, first compound 0.1 µM
# [27] = second compound 1 µM, first compound 0.316 µM
# [28] = second compound 1 µM, first compound 1 µM
# [29] = second compound 1 µM, first compound 3.16 µM
# [30] = second compound 1 µM, first compound 10 µM
# [31] = second compound 3.16 µM, first compound 0.0316 µM
# [32] = second compound 3.16 µM, first compound 0.1 µM
# [33] = second compound 3.16 µM, first compound 0.316 µM
# [34] = second compound 3.16 µM, first compound 1 µM
# [35] = second compound 3.16 µM, first compound 3.16 µM
# [36] = second compound 3.16 µM, first compound 10 µM
# [37] = second compound 10 µM, first compound 0.0316 µM
# [38] = second compound 10 µM, first compound 0.1 µM
# [39] = second compound 10 µM, first compound 0.316 µM
# [40] = second compound 10 µM, first compound 1 µM
# [41] = second compound 10 µM, first compound 3.16 µM
# [42] = second compound 10 µM, first compound 10 µM
# 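Further: spheroids exposed to agents for 7 days before reading.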
# 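Wherever viability, T/C is given: luminescence signal used as a stand-in for viable cells.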
smiles,measurement,setting,value
CC(=O)O[C@H]1C(=O)[C@@]2(C)[C@H]([C@H](OC(=O)c3ccccc3)[C@]3(O)C[C@H](OC(=O)[C@H](O)[C@@H](NC(=O)c4ccccc4)c4ccccc4)C(C)=C1C3(C)C)[C@]1(OC(C)=O)CO[C@@H]1C[C@@H]2O + CN1CCN(c2cc(C(=O)Nc3cc4cc(-c5cnn(C)c5)ccc4cn3)ccn2)CC1,IC50,[1],< 31.6 nM
same,IC50,[2],< 31.6 nM
same,IC50,[3],< 31.6 nM
same,IC50,[4],< 31.6 nM
same,IC50,[5],< 31.6 nM
same,IC50,[6],< 31.6 nM
same,"viability, T/C",[7],9.18%
same,"viability, T/C",[8],9.07%
same,"viability, T/C",[9],7.15%
same,"viability, T/C",[10],8.23%
same,"viability, T/C",[11],10.1%
same,"viability, T/C",[12],14.8%
same,"viability, T/C",[13],7.97%
same,"viability, T/C",[14],9.15%
same,"viability, T/C",[15],10.9%
same,"viability, T/C",[16],10.7%
same,"viability, T/C",[17],8.46%
same,"viability, T/C",[18],15.1%
same,"viability, T/C",[19],9.05%
same,"viability, T/C",[20],9.91%
same,"viability, T/C",[21],10.6%
same,"viability, T/C",[22],11.4%
same,"viability, T/C",[23],15.1%
same,"viability, T/C",[24],14.1%
same,"viability, T/C",[25],0.76%
same,"viability, T/C",[26],0.53%
same,"viability, T/C",[27],1.35%
same,"viability, T/C",[28],0.93%
same,"viability, T/C",[29],0.78%
same,"viability, T/C",[30],1.13%
same,"viability, T/C",[31],0.39%
same,"viability, T/C",[32],0.51%
same,"viability, T/C",[33],0.58%
same,"viability, T/C",[34],0.7%
same,"viability, T/C",[35],1.32%
same,"viability, T/C",[36],2.27%
same,"viability, T/C",[37],0.34%
same,"viability, T/C",[38],0.28%
same,"viability, T/C",[39],0.49%
same,"viability, T/C",[40],0.48%
same,"viability, T/C",[41],0.4%
same,"viability, T/C",[42],0.37%
CCc1c2c(nc3ccc(O)cc13)-c1cc3c(c(=O)n1C2)COC(=O)[C@]3(O)CC,"viability, T/C",compound 0.00316 µM,30% and 30.1%
same,"viability, T/C",compound 0.01 µM,17.2% and 14.6%
same,"viability, T/C",compound 0.0316 µM,6.41% and 5.33%
same,"viability, T/C",compound 0.1 µM,3.96% and 2.67%
same,"viability, T/C",compound 0.316 µM,1.37% and 1.52%
same,"viability, T/C",compound 1 µM,0.82% and 0.63%
same,IC50,curve of compound,< 3.16 nM
CC1(C)CCC(CN2CCN(c3ccc(C(=O)NS(=O)(=O)c4ccc(NCC5CCOCC5)c([N+](=O)[O-])c4)c(Oc4cnc5[nH]ccc5c4)c3)CC2)=C(c2ccc(Cl)cc2)C1,"viability, T/C",compound 0.0316 µM,83.6% and 106%
same,"viability, T/C",compound 0.1 µM,86.1% and 92.5%
same,"viability, T/C",compound 0.316 µM,92.9% and 90.5%
same,"viability, T/C",compound 1 µM,99% and 97%
same,"viability, T/C",compound 3.16 µM,82.7% and 83.9%
same,IC50,curve of compound,5200 nM and > 10000 nM
CNC(=O)c1ccc(Nc2nc(OC3CCCC3)c3c(-c4ccc5nc(C)oc5c4)c[nH]c3n2)c(OC)c1,"viability, T/C",compound 0.0316 µM,102% [middle of 12 runs]
same,"viability, T/C",compound 0.1 µM,57.2% [middle of 12 runs]
same,"viability, T/C",compound 0.316 µM,20.9% [middle of 12 runs]
same,"viability, T/C",compound 1 µM,20.4% [middle of 12 runs]
same,"viability, T/C",compound 3.16 µM,21% [middle of 12 runs]
same,"viability, T/C",compound 10 µM,21.6% [middle of 12 runs]
same,IC50,"compound alone, run of 08/01/2023",130 nM [middle of 11 runs]
Nc1ccn(C2OC(CO)C(O)C2(F)F)c(=O)n1 (stereo unspecified),"viability, T/C",compound 0.0316 µM,10.8% and 6.86%
same,"viability, T/C",compound 0.1 µM,4.28% and 3.83%
same,"viability, T/C",compound 0.316 µM,5.62% and 2.98%
same,"viability, T/C",compound 1 µM,2.41% and 2.75%
same,"viability, T/C",compound 3.16 µM,3.34% and 2.18%
same,"viability, T/C",compound 10 µM,2.14% and 1.73%
same,IC50,curve of compound,< 31.6 nM
Nc1ccccc1NC(=O)c1ccc(CNC(=O)OCc2cccnc2)cc1 + CNC(=O)c1ccc(Nc2nc(OC3CCCC3)c3c(-c4ccc5nc(C)oc5c4)c[nH]c3n2)c(OC)c1,IC50,[1],434 nM
same,IC50,[2],128 nM
same,IC50,[3],< 31.6 nM
same,IC50,[4],< 31.6 nM
same,IC50,[5],< 31.6 nM
same,IC50,[6],< 31.6 nM
same,"viability, T/C",[7],94.4%
same,"viability, T/C",[8],75.5%
same,"viability, T/C",[9],62.5%
same,"viability, T/C",[10],26.7%
same,"viability, T/C",[11],11.9%
same,"viability, T/C",[12],1.2%
same,"viability, T/C",[13],57.9%
same,"viability, T/C",[14],57.2%
same,"viability, T/C",[15],35.9%
same,"viability, T/C",[16],30.2%
same,"viability, T/C",[17],12.3%
same,"viability, T/C",[18],1.53%
same,"viability, T/C",[19],24.8%
same,"viability, T/C",[20],23.2%
same,"viability, T/C",[21],18%
same,"viability, T/C",[22],19.4%
same,"viability, T/C",[23],9.99%
same,"viability, T/C",[24],1.4%
same,"viability, T/C",[25],22.6%
same,"viability, T/C",[26],23%
same,"viability, T/C",[27],19.7%
same,"viability, T/C",[28],21.5%
same,"viability, T/C",[29],12.6%
same,"viability, T/C",[30],1.83%
same,"viability, T/C",[31],20.9%
same,"viability, T/C",[32],21.6%
same,"viability, T/C",[33],21.7%
same,"viability, T/C",[34],16.9%
same,"viability, T/C",[35],12.1%
same,"viability, T/C",[36],0.82%
same,"viability, T/C",[37],20.6%
same,"viability, T/C",[38],22.9%
same,"viability, T/C",[39],19%
same,"viability, T/C",[40],18.6%
same,"viability, T/C",[41],13.7%
same,"viability, T/C",[42],1.29%
